EP4725957A1, “GROUP OF CYCLIC ALKALINE LIPOPEPTIDE COMPOUNDS, AND PREPARATION METHOD THEREFOR AND USE THEREOF” (Institute of Medicinal Biotechnology, Chinese Academy of …, priority 2023, dated 2024)
In brackets after ≈: the same amount, converted by molar mass. Bridge positions count the residues as written; N and C are the ends. Square brackets hold non-standard residues; d marks the D form. Peptide text beside a SMILES is read from it. * marks the point of attachment. Dab(CH2SO3H) = N[C@@H](CCNCS(=O)(=O)O)C(=O)O; Heptanoyl(6-Me) = CC(C)CCCCC(=O)*; dOrn = NCCC[C@@H](N)C(=O)O; X1 = CC[C@H](C)CCCCC(=O)*; dDab = NCC[C@@H](N)C(=O)O; Orn = NCCC[C@H](N)C(=O)O; Dab = NCC[C@H](N)C(=O)O; Dap = NC[C@H](N)C(=O)O

Experiments:
Format in all cases: cell-based
[1] = Nephrotoxicity assay: in vitro cytotoxicity of HK-2 cells by CCK-8 assay; conditions: human, HK-2 cells (human renal), 72 h incubation with drug-containing medium
Protocol: In vitro cytotoxicity detection of HK-2 cells was performed by the CCK-8 assay.
The culture medium for human renal HK-2 cells was a complete RPMI-1640 medium (Invitrogen) supplemented with 10% fetal bovine serum (FBS, Gibco). The cryopreservation solution was composed of 90% FBS and 10% dimethyl sulfoxide (DMSO), and the cells were preserved long-term in liquid nitrogen. Cells were cultured in a sterile incubator with a humidified atmosphere containing 5% CO2 at 37°C. When the cell density reached 70%-80%, cell digestion and subculture were conducted. The cyclic lipopeptide compounds prepared in Examples 1-120 were weighed and dissolved in sterile water to prepare a mother solution with a concentration of 1 mg/mL. Drug-containing culture media were then formulated, with the final concentrations set as 500, 250, 200, 100, 50, 25, and 12.5 µg/mL, respectively. Cells were adjusted to a density of 5 × 10^4 cells/mL and seeded into 96-well plates, with 100 µL of cell suspension added to each well. After stable incubation for 24 h, the original medium was replaced with the prepared drug-containing medium, and the plates were incubated in the incubator for an additional 72 h. The medium was gently aspirated, and 100 µL of blank medium containing 10% CCK-8 was added to each well. After incubation in the incubator for 3 h, the optical density (OD) values at 450 nm were measured using a BIOTEK microplate reader. The experiment was repeated three times. For each replicate, polymyxin B was set as the positive drug, and a drug-free blank group was established as the control. The cell viability (%) was calculated by the formula: Cell viability (%) = [(OD of drug-treated group - OD of zero-setting) / (OD of drug-free group - OD of zero-setting)] × 100%. The half-maximal inhibitory concentration (IC50) values were calculated through logarithmic regression analysis.
The cells used for the nephrotoxicity assay were obtained from the ATCC ( American Type Culture Collection). The Cell Counting Kit-8 (CCK-8) used in the assay was supplied by Beyotime Biotechnology Co., Ltd.

[2] = test system: Escherichia coli ATCC BAA-2340 (KPC); conditions: ATCC BAA-2340
Protocol: (§1) The minimal inhibitory concentration (MIC) was determined by the broth microdilution method according to the recommended procedures of the Clinical and Laboratory Standards Institute (CLSI).
(§2) An appropriate amount of the cyclic lipopeptide compounds prepared in Examples 1-120 and the reference standards were weighed and dissolved in sterile pure water. An appropriate volume of the mother solution was subjected to ten-fold dilution with sterile Mueller-Hinton (MH) broth to a concentration of 0.256 mg/mL. Half of the drug solution was aliquoted into 96-well reagent reservoirs, while the other half was subjected to two-fold serial dilution with sterile MH broth before being transferred into deep-well reagent reservoirs. The above steps were repeated, so that the drug concentrations in the reagent reservoirs were adjusted to 128, 64, 32, 16, 8, 4, 2, 1, 0.5, 0.25, 0.125 and 0.06 mg/L in sequence, and all solutions were prepared and used immediately. Several colonies were picked from agar plates cultured for 18-24 h and directly suspended in sterile normal saline, and the concentration of the bacterial suspension was adjusted to 0.5 McFarland units. The calibrated bacterial suspension was diluted with MH broth to a concentration of (4-8) × 10^5 colony-forming units per milliliter (CFU/mL) and prepared and used immediately. A volume of 100 µL of the aforementioned compounds of the present disclosure (e.g., the compounds prepared in the examples) and reference solutions at different concentrations was separately pipetted into wells 1 to 12 of sterile 96-well polystyrene plates, and an additional 100 µL of the aforementioned inoculum was added to each well. The final concentrations of the samples in the wells were adjusted to 64, 32, 16, 8, 4, 2, 1, 0.5, 0.25, 0.125, 0.06 and 0.03 mg/L, respectively, and the final concentration of the inoculum in each well was (2-4) × 10^5 CFU/mL. Additional growth control wells were set up, each containing 100 µL of the inoculum and 100 µL of sterile MH broth. The test substances and inocula in all wells were mixed thoroughly and then sealed. The inoculated 96-well plates were incubated in an incubator at 35-37°C for 16-20 h.
(§3) The strains used for the antibacterial activity assay were obtained from the American Type Culture Collection (ATCC) and clinical isolates.
(§4) The strains employed for the antibacterial activity assay included Escherichia coli ATCC BAA-2523, ATCC BAA-2340 (KPC), Klebsiella pneumoniae KPN+19-15, ATCC BAA-1705 (KPC), Pseudomonas aeruginosa PAE19-3, ATCC 27853, Acinetobacter baumannii ABA19-1, and NCTC 13304 (OXA-27).

[3] = test system: Klebsiella pneumoniae KPN+19-15; conditions: KPN+19-15
Protocol: as §1, §2, §3, §4

[4] = test system: Pseudomonas aeruginosa ATCC 27853; conditions: ATCC 27853
Protocol: as §1, §2, §3, §4

[5] = test system: Klebsiella pneumoniae ATCC BAA-1705 (KPC); conditions: ATCC BAA-1705
Protocol: as §1, §2, §3, §4

[6] = test system: Acinetobacter baumannii NCTC 13304 (OXA-27); conditions: NCTC 13304
Protocol: as §1, §2, §3, §4

[7] = test system: Acinetobacter baumannii ABA19-1; conditions: ABA19-1
Protocol: as §1, §2, §3, §4

[8] = test system: Escherichia coli ATCC BAA-2523; conditions: ATCC BAA-2523
Protocol: as §1, §2, §3, §4

[9] = test system: Pseudomonas aeruginosa PAE19-3; conditions: PAE19-3
Protocol: as §1, §2, §3, §4

SMILES | IC50 at 72 h [1] | MIC [2] | MIC [3] | MIC [4] | MIC [5] | MIC [6] | MIC [7] | MIC [8] | MIC [9]
CC(C)CCCCC(=O)N[C@@H](CN)C(=O)N[C@H](C(=O)N[C@H](CCN)C(=O)N[C@H]1CCNC(=O)[C@H]([C@@H](C)O)NC(=O)[C@H](CCN)NC(=O)[C@H](CCN)NC(=O)[C@H](CC(C)C)NC(=O)[C@@H](Cc2ccccc2)NC(=O)[C@H](CCN)NC1=O)[C@@H](C)O [Compound 92, 6-methylheptanoyl-Dap-Thr-D-Dab-ring(4-10)[Dab-Dab-D-Phe-Leu-Dab-Dab-Thr]] ({Heptanoyl(6-Me)}-[Dap]T[dDab][Dab][Dab][dF]L[Dab][Dab]T; lactam 4-C) | 228 ± 18.7 µg/mL (≈ 194 µM) | 0.03 µg/mL (≈ 0.0255 µM) | 0.03 µg/mL (≈ 0.0255 µM) | 0.5 µg/mL (≈ 0.425 µM) | 0.03 µg/mL (≈ 0.0255 µM) | 0.03 µg/mL (≈ 0.0255 µM) | 0.03 µg/mL (≈ 0.0255 µM) | 0.03 µg/mL (≈ 0.0255 µM) | 0.5 µg/mL (≈ 0.425 µM)
CC[C@H](C)CCCCC(=O)N[C@@H](CCN)C(=O)N[C@H](C(=O)N[C@H](CCCN)C(=O)N[C@H]1CCNC(=O)[C@H]([C@@H](C)O)NC(=O)[C@H](CCN)NC(=O)[C@H](CCN)NC(=O)[C@H]([C@@H](C)O)NC(=O)[C@@H](Cc2ccccc2)NC(=O)[C@H](CCN)NC1=O)[C@@H](C)O [Compound 21, (S)-6-methyloctanoyl-Dab-Thr-D-Orn-ring(4-10)[Dab-Dab-D-Phe-Thr-Dab-Dab-Thr]] (X1-[Dab]T[dOrn][Dab][Dab][dF]T[Dab][Dab]T; lactam 4-C) | > 500 µg/mL | ≤0.03 µg/mL | 0.125 µg/mL (≈ 0.104 µM) | 0.25 µg/mL (≈ 0.207 µM) | 0.06 µg/mL (≈ 0.0498 µM) | 0.06 µg/mL (≈ 0.0498 µM) | 0.125 µg/mL (≈ 0.104 µM) | ≤0.03 µg/mL | 1 µg/mL (≈ 0.83 µM)
CC(C)CCCCC(=O)N[C@@H](CCN)C(=O)N[C@H](C(=O)N[C@@H](CN)C(=O)N[C@H]1CCNC(=O)[C@H]([C@@H](C)O)NC(=O)[C@H](CCN)NC(=O)[C@H](CCN)NC(=O)[C@H]([C@@H](C)O)NC(=O)[C@@H](Cc2ccccc2)NC(=O)[C@H](CCNCS(=O)(=O)O)NC1=O)[C@@H](C)O [Compound 118, 6-methylheptanoyl-Dab-Thr-Dap-ring(4-10)[Dab-Dab(CH2SO3H)-D-Phe-Thr-Dab-Dab-Thr]] ({Heptanoyl(6-Me)}-[Dab]T[Dap][Dab][Dab(CH2SO3H)][dF]T[Dab][Dab]T; lactam 4-C) | > 500 µg/mL | 0.06 µg/mL (≈ 0.0477 µM) | 0.125 µg/mL (≈ 0.0994 µM) | 0.25 µg/mL (≈ 0.199 µM) | 0.125 µg/mL (≈ 0.0994 µM) | 0.06 µg/mL (≈ 0.0477 µM) | 0.25 µg/mL (≈ 0.199 µM) | 0.06 µg/mL (≈ 0.0477 µM) | 0.5 µg/mL (≈ 0.398 µM)
CC(C)CCCCC(=O)N[C@@H](CCN)C(=O)N[C@H](C(=O)N[C@H](CO)C(=O)N[C@H]1CCNC(=O)[C@H]([C@@H](C)O)NC(=O)[C@H](CCCN)NC(=O)[C@H](CCN)NC(=O)[C@H]([C@@H](C)O)NC(=O)[C@@H](Cc2ccccc2)NC(=O)[C@H](CCN)NC1=O)[C@@H](C)O [Compound 87, 6-methylheptanoyl-Dab-Thr-D-Ser-ring(4-10)[Dab-Dab-D-Phe-Thr-Dab-Orn-Thr]] ({Heptanoyl(6-Me)}-[Dab]T[dS][Dab][Dab][dF]T[Dab][Orn]T; lactam 4-C) | > 500 µg/mL | 0.03 µg/mL (≈ 0.0255 µM) | 0.5 µg/mL (≈ 0.424 µM) | >64 µg/mL | 0.25 µg/mL (≈ 0.212 µM) | ≤0.03 µg/mL | 0.06 µg/mL (≈ 0.0509 µM) | 0.03 µg/mL (≈ 0.0255 µM) | 64 µg/mL (≈ 54.3 µM)
CC(C)CCCCC(=O)N[C@@H](CCN)C(=O)N[C@H](C(=O)N[C@H](CO)C(=O)N[C@H]1CCNC(=O)[C@H]([C@@H](C)O)NC(=O)[C@H](CCNCS(=O)(=O)O)NC(=O)[C@H](CCN)NC(=O)[C@H]([C@@H](C)O)NC(=O)[C@@H](Cc2ccccc2)NC(=O)[C@H](CCN)NC1=O)[C@@H](C)O [Compound 111, 6-methylheptanoyl-Dab-Thr-D-Ser-ring(4-10)[Dab-Dab-D-Phe-Thr-Dab-Dab(CH2SO3H)-Thr]] ({Heptanoyl(6-Me)}-[Dab]T[dS][Dab][Dab][dF]T[Dab][Dab(CH2SO3H)]T; lactam 4-C) | > 500 µg/mL | 0.06 µg/mL (≈ 0.0477 µM) | 0.125 µg/mL (≈ 0.0993 µM) | 0.25 µg/mL (≈ 0.199 µM) | 0.125 µg/mL (≈ 0.0993 µM) | 0.06 µg/mL (≈ 0.0477 µM) | 0.25 µg/mL (≈ 0.199 µM) | 0.06 µg/mL (≈ 0.0477 µM) | 0.5 µg/mL (≈ 0.397 µM)
CC(C)CCCCC(=O)N[C@@H](CCN)C(=O)N[C@H](C(=O)N[C@H](CO)C(=O)N[C@H]1CCNC(=O)[C@H]([C@@H](C)O)NC(=O)[C@H](CCN)NC(=O)[C@H](CN)NC(=O)[C@H]([C@@H](C)O)NC(=O)[C@@H](Cc2ccccc2)NC(=O)[C@H](CCN)NC1=O)[C@@H](C)O [Compound 72, 6-methylheptanoyl-Dab-Thr-D-Ser-ring(4-10)[Dab-Dab-D-Phe-Thr-Dap-Dab-Thr]] ({Heptanoyl(6-Me)}-[Dab]T[dS][Dab][Dab][dF]T[Dap][Dab]T; lactam 4-C) | > 500 µg/mL | ≤0.03 µg/mL | 0.5 µg/mL (≈ 0.435 µM) | >64 µg/mL | 0.25 µg/mL (≈ 0.217 µM) | ≤0.03 µg/mL | 0.06 µg/mL (≈ 0.0522 µM) | ≤0.03 µg/mL | 64 µg/mL (≈ 55.6 µM)
